Data from PMC12797170, “Potent Competitive Inhibitors of Ecto-5′-nucleotidase (CD73) based on 6‑(Het)aryl-7-deazapurine Ribonucleoside 5′‑O‑Bisphosphonates” (ACS Pharmacology & Translational Science, 2025).
In brackets after ≈: the same amount, converted by molar mass. Like-named read-outs stand apart in the source and are kept apart here.

Assays:
[1] = tested on: nonmalignant human dermal fibroblasts (NHDF); test: In vitro cytotoxic activity; assay type: cell-based
Description: (§1) All the compounds were also tested for their in vitro cytotoxic activity on a small panel of four cancer cell lines (CCRF-CEM, HepG2, HeLa S3, HL-60) and nonmalignant human dermal fibroblasts (NHDF).

HL-60 = test: In vitro cytotoxic activity; assay type: cell-based; details: Homo sapiens
Description: as §1

HepG2 = test: In vitro cytotoxic activity; assay type: cell-based; details: Homo sapiens
Description: as §1

HeLa S3 = test: In vitro cytotoxic activity; assay type: cell-based; details: Homo sapiens
Description: as §1

CCRF-CEM = test: In vitro cytotoxic activity; assay type: cell-based; details: Homo sapiens
Description: as §1

[2] = In vivo pharmacokinetic study, intravenous; design: species or system male CD-1 mice; details: for half-life / t1/2 (half-life): footnote: t1/2 stability in plasma, text: half-life in mouse PK
Description: The pharmacokinetic study was performed by Bienta (Enamine Biology Services) using male CD-1 mice (3 animals, 9 weeks old, body weight ranging from 29.2 to 33.7 g) following intravenous administration. Levels of the test compound were determined by LC-MS/MS in blood plasma over time (seven sampling time points: 5, 15, 30, 60, 120, 240, and 480 min) after a single dose.
Animal treatment and samples preparation were conducted by the Animal Laboratory personnel at Enamine/Bienta.

[3] = Kinetic solubility in PBS; assay type: physicochemical; details: phosphate-buffered saline, pH 7.4, aqueous buffer, kinetic from dmso stock
Method in brief: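 DMSO stocks diluted into PBS pH 7.4 to 100 μM and shaken 2 h at room temperature in duplicate, then filtered by centrifugation. Filtrates diluted 1:99 in 50% acetonitrile. Quantified by Echo-MS against calibration standards spanning 0.05–4 μM.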

[4] = Microsomal stability assay, human liver microsomes; assay type: in vitro ADME; details: for Mics (hu) comp remaining 60 min: 10 μM; for microsomal CLint at 10 µM: pooled liver microsomes, pH 7.4, read-out: Mics (hu) CLint
in vitro [5] = details: human, plasma
[6] = molecular target: T1, recombinant human CD73 (hCD73) (Homo sapiens, UniProt P21589); test: CD73 activity assay on recombinant human CD73; assay type: biochemical; details: ΔGexp = RT ln Ki
T1 sequence (P21589 27-574): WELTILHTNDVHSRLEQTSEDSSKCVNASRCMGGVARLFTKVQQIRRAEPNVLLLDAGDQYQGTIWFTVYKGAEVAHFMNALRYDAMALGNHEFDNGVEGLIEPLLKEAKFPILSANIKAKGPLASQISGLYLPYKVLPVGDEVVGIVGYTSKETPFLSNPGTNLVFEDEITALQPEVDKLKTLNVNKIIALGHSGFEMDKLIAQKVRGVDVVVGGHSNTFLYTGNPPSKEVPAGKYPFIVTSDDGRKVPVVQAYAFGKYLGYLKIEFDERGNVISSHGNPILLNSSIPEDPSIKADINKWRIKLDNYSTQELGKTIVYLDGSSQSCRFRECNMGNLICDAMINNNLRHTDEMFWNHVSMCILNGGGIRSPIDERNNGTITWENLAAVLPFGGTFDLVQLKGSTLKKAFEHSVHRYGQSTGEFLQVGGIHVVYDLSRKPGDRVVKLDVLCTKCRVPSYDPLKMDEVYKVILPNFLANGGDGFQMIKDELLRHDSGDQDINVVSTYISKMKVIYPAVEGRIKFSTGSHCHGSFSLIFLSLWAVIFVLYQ

[7] = Plasma protein binding, mouse plasma; assay type: in vitro ADME; details: mouse, plasma
[8] = Plasma protein binding, equilibrium dialysis, human plasma; assay type: in vitro ADME; details: undiluted plasma
in vitro [9] = details: mouse, plasma
[10] = Microsomal stability assay, mouse liver microsomes; assay type: in vitro ADME; details: for Mics (m) comp remaining 60 min: 10 μM; for microsomal CLint at 10 µM: pooled liver microsomes, pH 7.4, read-out: Mics (m) CLint
[11] = male, CD-1, mouse, plasma, iv, 1 mg/kg, intravenous
[12] = mouse, plasma, 1 mg/kg, male CD-1 mice, intravenous, single dose, read-out: Cl (obs), observed clearance
[13] = Tables 2 and 4, mouse plasma, read-out: fup, fraction unbound in mouse plasma
[14] = mouse plasma protein binding, read-out: PPB (m) (converted)
[15] = human plasma protein binding, read-out: PPB (hu) (converted)
[16] = Tables 1 and 3, human plasma as printed in footnote, read-out: fup, fraction unbound in human plasma
[17] = in vivo PK in mice, unit not given

Row | half-life [2, 11] | clearance [2, 12] | solubility at 2 h [3] | Mics (hu) comp remaining 60 min [4] | microsomal CLint at 10 µM [4] | half-life at 10 µM (in vitro [5]) | dG_exp, experimental binding free energy [6] | fraction unbound at 4 h, 100 µM [7, 13] | fraction unbound at 4 h, 100 µM [7, 14] | fraction unbound at 4 h, 100 µM [8, 15] | half-life at 10 µM (in vitro [9]) | Mics (m) comp remaining 60 min [10] | microsomal CLint at 10 µM [10] | fraction unbound at 4 h, 100 µM [8, 16] | SMILES | IC50 [1] | IC50 (HL-60) | IC50 (HepG2) | IC50 (HeLa S3) | IC50 (CCRF-CEM) | also measured
1 | 0.122 h | 8.3 mL/min/kg | 84 µM (≈ 47.9 µg/mL) | 111% | < 1 µL/min/mg | > 2 h | –15.9 kcal/mol | 0.11 | 0.112 | 0.033 | > 2 h | 106% | < 1 µL/min/mg |  | O=P(O)(O)CP(=O)(O)OC[C@H]1O[C@@H](n2ccc3c(-c4ccc5ccccc5c4)nc(Cl)nc32)[C@H](O)[C@@H]1O [7B.7] | > 10 µM | > 10 µM | > 10 µM | > 10 µM | > 10 µM | 
2 | 0.283 h | 5.9 mL/min/kg | > 100 µM | 108% | < 2 µL/min/mg | > 2 h | –15.4 kcal/mol | 0.08 | 0.079 | ≤ 0.01 | > 2 h | 109% | < 2 µL/min/mg |  | O=P(O)(O)CP(=O)(O)OC[C@H]1O[C@@H](n2ccc3c(-c4ccc5cc(F)ccc5c4)nc(Cl)nc32)[C@H](O)[C@@H]1O [7B.25] | > 10 µM | > 10 µM | > 10 µM | > 10 µM | > 10 µM | 
3 | 0.113 h | 11 mL/min/kg | > 100 µM | 104% | < 2 µL/min/mg | > 2 h | –15.8 kcal/mol | 0.2 | 0.198 | 0.084 | > 2 h | 111% | < 2 µL/min/mg |  | O=P(O)(O)CP(=O)(O)OC[C@H]1O[C@@H](n2ccc3c(-c4ccc5cc(O)ccc5c4)nc(Cl)nc32)[C@H](O)[C@@H]1O [7B.32] | > 10 µM | > 10 µM | > 10 µM | > 10 µM | > 10 µM | 
4 | 0.617 h | 12 mL/min/kg | > 100 µM | 111% | < 1 µL/min/mg | > 2 h | –15.7 kcal/mol | 0.21 | 0.201 | 0.012 | > 2 h | 72% | 12 µL/min/mg |  | O=P(O)(O)CP(=O)(O)OC[C@H]1O[C@@H](n2ccc3c(-c4cc5ccccc5[nH]4)nc(Cl)nc32)[C@H](O)[C@@H]1O [7B.24] | > 10 µM | > 10 µM | > 10 µM | > 10 µM | > 10 µM | 

Further lines, the molecule ahead of its results:

Row | SMILES | half-life [2, 11] | clearance [2, 12] | solubility at 2 h [3] | Mics (hu) comp remaining 60 min [4] | microsomal CLint at 10 µM [4] | half-life at 10 µM (in vitro [5]) | dG_exp, experimental binding free energy [6] | fraction unbound at 4 h, 100 µM [7, 13] | fraction unbound at 4 h, 100 µM [7, 14] | fraction unbound at 4 h, 100 µM [8, 15] | half-life at 10 µM (in vitro [9]) | Mics (m) comp remaining 60 min [10] | microsomal CLint at 10 µM [10] | fraction unbound at 4 h, 100 µM [8, 16] | IC50 [1] | IC50 (HL-60) | IC50 (HepG2) | IC50 (HeLa S3) | IC50 (CCRF-CEM) | also measured
5 | O=P(O)(O)CP(=O)(O)OC[C@H]1O[C@@H](n2ccc3c(-c4cc5ccccc5o4)nc(Cl)nc32)[C@H](O)[C@@H]1O [7B.8] | 0.142 h | 8.8 mL/min/kg | 87 µM (≈ 48.7 µg/mL) | 98% | 1 µL/min/mg | > 2 h | –16.0 kcal/mol | 0.19 | 0.187 | 0.033 | > 2 h | 109% | < 1 µL/min/mg |  | > 10 µM | 6 µM | > 10 µM | > 10 µM | > 10 µM | 
6 | O=P(O)(O)CP(=O)(O)OC[C@H]1O[C@@H](n2ccc3c(-c4cccc5ccccc45)ncnc32)[C@H](O)[C@@H]1O [4A.6] | 2.83 h |  | 62 µM (≈ 33.2 µg/mL) |  |  | > 2 h | –14.4 kcal/mol |  | 0.626 | 0.086 | > 2 h |  |  | 0.63 | > 10 µM | > 10 µM | > 10 µM | > 10 µM | > 10 µM | clearance ([2]; male, CD-1, mouse, plasma, iv, 1 mg/kg, in vivo PK in mice, unit inferred, read-out: clearance): 1.4 mL/min/kg
7 | O=P(O)(O)CP(=O)(O)OC[C@H]1O[C@@H](n2ccc3c(-c4cccc5c4oc4ccccc45)ncnc32)[C@H](O)[C@@H]1O [4A.10] | 2.38 h | 3.5 mL/min/kg | > 100 µM |  |  | > 2 h | –12.9 kcal/mol |  | 0.135 | 0.004 | > 2 h |  |  | 0.13 | > 10 µM | 9.5 µM | > 10 µM | > 10 µM | > 10 µM | clearance [2, 17]: moderate clearance
8 | O=P(O)(O)CP(=O)(O)OC[C@H]1O[C@@H](n2ccc3c(-c4ccsc4)ncnc32)[C@H](O)[C@@H]1O [4A.4] | 0.0833 h | 12 mL/min/kg | 90 µM (≈ 44.2 µg/mL) |  |  | > 2 h | –13.2 kcal/mol |  | 0.726 | 0.125 | > 2 h |  |  | 0.82 | > 10 µM | 3.4 µM | > 10 µM | > 10 µM | 9.7 µM | t1/2 (half-life) ([2]; intravenous): 4.5 min; clearance [2, 17]: high clearance
9 | O=P(O)(O)CP(=O)(O)OC[C@H]1O[C@@H](n2ccc3c(-c4cc5ccccc5o4)nc(F)nc32)[C@H](O)[C@@H]1O [14D.8] |  |  | 76 µM (≈ 41.3 µg/mL) | 107% | < 1 µL/min/mg | > 2 h | –14.3 kcal/mol |  | 0.286 | 0.008 | > 2 h |  | < 1 µL/min/mg |  | > 10 µM | > 10 µM | > 10 µM | > 10 µM | > 10 µM | 
10 | Cc1nc(-c2cccc3c2CCCC3)c2ccn([C@@H]3O[C@H](COP(=O)(O)CP(=O)(O)O)[C@@H](O)[C@H]3O)c2n1 [18E.12] |  |  | 80 µM (≈ 44.3 µg/mL) | 108% | < 1 µL/min/mg | > 2 h | –14.4 kcal/mol |  | 0.323 | 0.022 | > 2 h | 106% | < 1 µL/min/mg |  | > 10 µM | > 10 µM | > 10 µM | > 10 µM | > 10 µM | 
11 | O=P(O)(O)CP(=O)(O)OC[C@H]1O[C@@H](n2ccc3c(-c4cc5ccccc5o4)ncnc32)[C@H](O)[C@@H]1O [4A.8] | 0.15 h | 11 mL/min/kg | 98 µM (≈ 51.5 µg/mL) |  |  | > 2 h | –13.5 kcal/mol |  | 0.371 | 0.019 | > 2 h |  |  | 0.37 | > 10 µM | > 10 µM | > 10 µM | > 10 µM | > 10 µM | t1/2 (half-life) ([2]; intravenous): 8.5 min; clearance [2, 17]: high clearance
